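Grown in 96-well plates, cells were treated for 48 hours with each compound at five concentrations. Insufficient inhibition: endpoint recorded as highest concentration tested. The concentration for full growth arrest is given as TGI.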
Assays:
Experiment in all cases: DTP human tumour cell line panel, 48 h
HOP-92 NSCLC = test system: HOP-92 NSCLC
HCT-116 colon = test system: HCT-116 colon
NCI-H226 lung = test system: NCI-H226 lung
SF-539 CNS = test system: SF-539 CNS
SK-MEL-5 melanoma = test system: SK-MEL-5 melanoma
OVCAR-8 ovarian = test system: OVCAR-8 ovarian
HCC-2998 colon = test system: HCC-2998 colon
SNB-19 CNS = test system: SNB-19 CNS
NCI-H460 lung = test system: NCI-H460 lung
SF-295 CNS = test system: SF-295 CNS
RPMI-8226 leukemia = test system: RPMI-8226 leukemia
MOLT-4 leukemia = test system: MOLT-4 leukemia
TK-10 renal = test system: TK-10 renal
EKVX NSCLC = test system: EKVX NSCLC
MDA-MB-231 breast = test system: MDA-MB-231 breast

Row | Structure (SMILES) | TGI (HOP-92 NSCLC) [µM] | TGI (HCT-116 colon) [µM] | TGI (NCI-H226 lung) [µM] | TGI (SF-539 CNS) [µM] | TGI (SK-MEL-5 melanoma) [µM] | TGI (OVCAR-8 ovarian) [µM] | TGI (HCC-2998 colon) [µM] | TGI (SNB-19 CNS) [µM] | TGI (NCI-H460 lung) [µM] | TGI (SF-295 CNS) [µM] | TGI (RPMI-8226 leukemia) [µM] | TGI (MOLT-4 leukemia) [µM] | TGI (TK-10 renal) [µM] | TGI (EKVX NSCLC) [µM] | TGI (MDA-MB-231 breast) [µM]
1 | COc1cccc2c1c1ccc3c(c1n2C)C(=O)C=CC3=O | 25.9 | 27.2 | > 100 | 30.9 | > 100 | 29.7 | > 100 | > 100 | > 100 | > 100 | 11.6 | 8.65 | 33.3 |  | 
2 | COc1ccc(CNc2cnc3cc(N)ccc3n2)cc1 |  | > 100 | > 100 | > 100 | > 100 | > 100 | > 100 | > 100 | > 100 | > 100 | > 100 | > 100 | > 100 | > 100 | 
3 | CC(C)CC(NC(=O)C(C)(CI)Cc1ccccc1)C(=O)Nc1ccccc1 (configuration not stated) | > 100 | > 100 | > 100 | > 100 | > 100 | > 100 | > 100 | > 100 | > 100 | > 100 | > 100 | > 100 | > 100 | > 100 | > 100
4 | COc1ccc2c3c1OC1C(F)C=CC4(O)C(C2)NCCC314 (configuration not stated) | 20.2 | 3.01 | 30.8 |  | 16.1 | 14.7 | 12.8 | 5.78 | 21.4 | 21.9 |  | 3.76 | 12.8 | 11 | 12.7
5 | Cc1ccc(CC(Cc2ccccc2C)C(=O)O)c(C(=O)O)c1 (configuration not stated) | > 100 | > 100 | > 100 | > 100 | > 100 | > 100 | > 100 | > 100 | > 100 | > 100 | > 100 | > 100 | > 100 | > 100 | > 100
6 | COC(=O)[C@]12CC3C=CC1N(C3)C(CBr)c1c2n(S(=O)(=O)c2ccccc2)c2ccccc12 (some centres not stated) |  | > 100 | > 100 |  | > 100 | > 100 | > 100 |  | > 100 | > 100 | 23.5 |  | > 100 | > 100 | > 100
7 | C=C(C)C12CC3CC(/C(=N/O)C(C1)/C3=N\O)[C@@]2(C)O (some centres not stated) |  | > 100 | > 100 | > 100 | > 100 | > 100 | > 100 | > 100 | > 100 | > 100 | > 100 | > 100 | > 100 | > 100 | 
8 | CSc1ncnc2c1ncn2CCC(=O)O | > 100 | > 100 | > 100 | > 100 | > 100 | > 100 |  | > 100 | > 100 | > 100 | > 100 | > 100 | > 100 | > 100 | > 100
9 | CSC1=N/C(=C\c2ccc(Cl)cc2)C(=O)N1CN1CCCCC1 |  | > 100 | > 100 |  | > 100 | > 100 |  |  |  | > 100 | > 100 | > 100 | > 100 | 53.3 | > 100
10 | COc1cc(C2C(Cl)C(=O)N2NC(=O)Cc2ccccc2)cc(Br)c1O (configuration not stated) |  | > 100 | > 100 |  | > 100 | > 100 | > 100 | > 100 | > 100 | > 100 | > 100 | > 100 | > 100 | > 100 | 
11 | OC12c3ccccc3C1CCCCC2N1CCCC1 (configuration not stated) |  | > 100 | > 100 |  | > 100 | > 100 |  | > 100 | > 100 | > 100 | > 100 | > 100 | > 100 | > 100 | 
12 | CC(C)(O)C(O)COc1c2c(cc3oc(=O)ccc13)OCO2 (configuration not stated) | > 100 | > 100 | > 100 | > 100 | > 100 | > 100 | > 100 | > 100 | > 100 | > 100 | > 100 | > 100 | > 100 | > 100 | 
13 | COc1cc(/C=C2\C(=O)N(C(=O)Cc3ccccc3)N=C2C)cc(OC)c1OC |  | > 100 | > 100 | > 100 | > 100 | > 100 | > 100 | > 100 | > 100 | > 100 | > 100 | > 100 | > 100 | > 100 | 
14 | CC(=O)c1nc2ccccc2n1C(C)C(=O)c1ccccc1 (configuration not stated) | > 100 | > 100 | > 100 | > 100 |  | > 100 |  | > 100 | > 100 | > 100 | > 100 | > 100 | > 100 | > 100 | > 100
15 | COc1ccc(C(c2ccccc2)(c2ccc(OC)cc2)N2C(=O)NC3C(CCCCC(=O)NCCCCCCOP(OCCC#N)N(C(C)C)C(C)C)SCC32)cc1 (configuration not stated) | 35 | 24.9 | 30.4 | 28.1 | 31 | 90.6 | 31.6 |  | 33.8 | 31.2 |  | 28.5 | 35.7 | 56.5 | 
